GI50 and TGI data for 5 compounds are collected here from PubChem BioAssay (NCI).

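Five compound concentrations were applied to cells in 96-well plates for 48 hours; endpoints were derived by simple linear interpolation of the resulting dose-response curve. GI50 marks 50% less growth. TGI denotes the concentration required for complete inhibition of growth.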

Some test systems named below: A498 renal; BT-549 breast; HCT-116 colon; HCT-15 colon; HL-60(TB) leukemia; M14 melanoma; SF-295 CNS; SK-MEL-28 melanoma; SK-OV-3 ovarian; UACC-257 melanoma.
Assay in all cases: growth of human tumour cells (NCI), 48 h

As to `CCN=C1C=CC(=C(c2ccc(N(C)C)cc2)c2ccc(N(C)C)cc2)c2ccccc21`, the GI50 in the experiment on A498 renal is 0.16 µM; with BT-549 breast, 0.0868 µM; in the experiment on HCT-116 colon it was 0.0358 µM; in the experiment with HCT-15 colon, 0.294 µM; with HL-60(TB) leukemia it was 0.0434 µM; in the experiment with M14 melanoma, 0.107 µM. Moreover, the GI50 with SF-295 CNS was 0.122 µM; with SK-MEL-28 melanoma it was 0.15 µM; with SK-OV-3 ovarian, 0.105 µM; in the experiment with UACC-257 melanoma, 0.0234 µM. Further, the TGI amounted to 0.453 µM in the experiment with A498 renal; 0.489 µM with BT-549 breast; 0.174 µM with HCT-116 colon; 1.31 µM in the experiment on HCT-15 colon; 0.141 µM in the experiment with HL-60(TB) leukemia; 0.372 µM in the experiment with M14 melanoma. Besides, the TGI in the experiment with SF-295 CNS came out at 0.423 µM; in the experiment on SK-MEL-28 melanoma it was 1.66 µM; in the experiment with SK-OV-3 ovarian, 0.455 µM; in the experiment with UACC-257 melanoma, 0.0592 µM.

Regarding `CCOC(=O)Cc1c[nH]c(=S)[nH]c1=O`, the GI50 in the experiment with A498 renal, in the experiment with BT-549 breast, in the experiment with HCT-116 colon, in the experiment on HCT-15 colon, in the experiment with HL-60(TB) leukemia and in the experiment on M14 melanoma was more than 100 µM in each case. Moreover, the GI50 in the experiment with SF-295 CNS, with SK-MEL-28 melanoma, in the experiment on SK-OV-3 ovarian and with UACC-257 melanoma was more than 100 µM throughout. Also, the TGI in the experiment on A498 renal, with BT-549 breast, in the experiment on HCT-116 colon, in the experiment on HCT-15 colon, with HL-60(TB) leukemia and in the experiment with M14 melanoma was more than 100 µM each time. Besides, the TGI in the experiment with SF-295 CNS, with SK-MEL-28 melanoma, in the experiment with SK-OV-3 ovarian and in the experiment on UACC-257 melanoma was more than 100 µM in each case.

In the case of `CC[C@H](Nc1nc(N)nc(C)c1C#N)c1nc2cccc(CN(C)c3ncc(C(=O)NO)cn3)c2c(=O)n1-c1ccccc1`, the GI50 in the experiment with A498 renal is 0.295 µM; in the experiment with BT-549 breast, 2.26 µM; with HCT-116 colon it was 0.364 µM; with HCT-15 colon, 2.11 µM; with HL-60(TB) leukemia it was 0.262 µM; with M14 melanoma, 1.08 µM. Also, the GI50 in the experiment on SF-295 CNS was 1.28 µM; in the experiment on SK-MEL-28 melanoma it was 0.604 µM; with SK-OV-3 ovarian, 0.969 µM; with UACC-257 melanoma it was 0.36 µM. Besides, the TGI in the experiment on A498 renal stood at 1.13 µM; with BT-549 breast, 12.5 µM; in the experiment on HCT-116 colon, 2.92 µM; in the experiment with HCT-15 colon it was 12 µM; in the experiment with HL-60(TB) leukemia, 3.48 µM; with M14 melanoma, 7.01 µM. The TGI with SF-295 CNS was 3.81 µM; in the experiment on SK-MEL-28 melanoma it was 3.16 µM; in the experiment on SK-OV-3 ovarian, 3.22 µM; in the experiment on UACC-257 melanoma, 3.11 µM.

On to `CCN(CC)CCOc1ccc(C(=C(C)c2ccc(Cl)cc2)c2ccc(OCCN(CC)CC)cc2)cc1`, for which the GI50 with A498 renal is 1.79 µM; in the experiment with BT-549 breast, 1.33 µM; in the experiment with HCT-116 colon, 0.591 µM; in the experiment on HCT-15 colon, 0.556 µM; in the experiment with HL-60(TB) leukemia, 0.639 µM; in the experiment on M14 melanoma it was 0.633 µM. Moreover, the GI50 in the experiment with SF-295 CNS was 0.614 µM; in the experiment with SK-MEL-28 melanoma, 0.602 µM; in the experiment with SK-OV-3 ovarian it was 1.22 µM; in the experiment on UACC-257 melanoma it was 0.592 µM. For the same compound, the TGI amounted to 6.12 µM in the experiment with A498 renal; 4.22 µM with BT-549 breast; 1.16 µM in the experiment on HCT-116 colon; 1.08 µM with HCT-15 colon; 1.34 µM with HL-60(TB) leukemia; 1.14 µM in the experiment on M14 melanoma. Besides, the TGI was determined as 1.19 µM in the experiment on SF-295 CNS, 1.1 µM in the experiment on SK-MEL-28 melanoma, 4.11 µM with SK-OV-3 ovarian and 1.17 µM with UACC-257 melanoma.

Regarding `O=C1C(Cl)=C(N/N=c2/[nH][nH]/c(=N/NC3=C(Cl)C(=O)c4ccccc4C3=O)c3ccccc23)C(=O)c2ccccc21`, the GI50 with A498 renal is 11.5 µM; with BT-549 breast, 13.5 µM; with HCT-116 colon, 14.3 µM; with HCT-15 colon it was 19.8 µM; with HL-60(TB) leukemia it was 8.45 µM; with M14 melanoma, 16.9 µM. In addition, the GI50 in the experiment with SF-295 CNS is 14.2 µM; with SK-MEL-28 melanoma it was 19.5 µM; in the experiment on SK-OV-3 ovarian, 15.3 µM; in the experiment on UACC-257 melanoma, 14.9 µM. Moreover, the TGI in the experiment on A498 renal is 24 µM; in the experiment with BT-549 breast it was 26.8 µM; in the experiment with HCT-116 colon, 32.3 µM; with HCT-15 colon, more than 100 µM; with HL-60(TB) leukemia, 34.2 µM; with M14 melanoma, 34.8 µM. The TGI in the experiment on SF-295 CNS came out at 30.5 µM; with SK-MEL-28 melanoma, 39 µM; with SK-OV-3 ovarian, 29.5 µM; with UACC-257 melanoma, 28.7 µM.
